From US10821115B2, “Compounds that inhibit Mcl-1 protein” (priority 2017, dated 2020)
Where two headings read alike, the source gives them in different places.

Tests used:
[1] = target: recombinant human Mcl-1 (residues 171-327) / Bim interaction (Homo sapiens (Human), UniProt Q07820); assay: biochemical; format: binding; details: read-out: Mcl-1 HTRF IC50
[2] = tested on: human multiple myeloma cell line, OPM-2; assay: Cell viability assay (OPM-2 10 FBS), CellTiter-Glo; format: cell-based
In short: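 Serially diluted test compounds are incubated 16 h with cells (3000/well) in RPMI 1640 supplemented with 10% FBS. Viability is then measured by luminescence and IC50 calculated by 4-parameter logistic fit.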

[3] = TR-FRET, Mcl-1(171-327) / biotin-Bim (51-76)
[4] = Homo sapiens, OPM-2, 16 h, read-out: OPM-2 10% FBS IC50 IP, OPM-2 cells, 10% FBS, 16 h, CellTiter-Glo
[5] = 0.1 nM Mcl-1(171-327), 0.05 nM biotin-Bim (51-76)
[6] = read-out: OPM-2 10% FBS IC50 IP, OPM-2 cells, 10% FBS, 16 h incubation

recombinant human Mcl-1 (residues 171-327) / Bim interaction, sequence (Q07820 171-327): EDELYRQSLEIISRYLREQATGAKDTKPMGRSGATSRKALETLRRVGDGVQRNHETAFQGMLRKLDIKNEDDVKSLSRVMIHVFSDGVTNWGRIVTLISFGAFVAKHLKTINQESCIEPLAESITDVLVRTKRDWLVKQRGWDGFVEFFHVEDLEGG

Row | Compound | IC50 [1, 3] | IC50 [2, 4] | IC50 [1, 5] | IC50 [2, 6]
1 | CO[C@@]1(Cc2nc(CO)c(C)o2)/C=C/C[C@H](C)[C@@H](C)S(=O)(=O)NC(=O)c2ccc3c(c2)N(C[C@@H]2CC[C@H]21)C[C@@]1(CCCc2cc(Cl)ccc21)CO3 [Example 100584, (1S,3′R,6′R,7′S,8′E,11′S,12′R)-6-chloro-7′-((4-(hydroxymethyl)-5-methyl-1,3-oxazol-2-yl)methyl)-7′-methoxy-11′,12′-dimethyl-3,4-dihydro-2H,15′H-spiro[naphthalene-1,22′-[20]oxa[13]thia[1,14]diazatetracyclo [14.7.2.0~3,6~.0~19,24~]pentacosa[8,16,18,24]tetraen]-15′-one 13′,13′-dioxide] | 0.139 nM | 349 nM | – | –
2 | COCc1nc(C[C@]2(OC)/C=C/C[C@H](C)[C@@H](C)S(=O)(=O)NC(=O)c3ccc4c(c3)N(C[C@@H]3CC[C@H]32)C[C@@]2(CCCc3cc(Cl)ccc32)CO4)oc1C [Example 100585, (1S,3′R,6′R,7′S,8′E,11′S,12′R)-6-chloro-7′-methoxy-7′-((4-(methoxymethyl)-5-methyl-1,3-oxazol-2-yl)methyl)-11′,12′-dimethyl-3,4-dihydro-2H,15′H-spiro[naphthalene-1,22′-[20]oxa[13]thia[1,14]diazatetracyclo [14.7.2.0~3,6~.0~19,24~]pentacosa[8,16,18,24]tetraen]-15′-one 13′,13′-dioxide] | 0.057 nM | 696 nM | – | –
3 | CO[C@@]1(Cc2nc(CN(C)C)c(C)o2)/C=C/C[C@H](C)[C@@H](C)S(=O)(=O)NC(=O)c2ccc3c(c2)N(C[C@@H]2CC[C@H]21)C[C@@]1(CCCc2cc(Cl)ccc21)CO3 [Example 100586, (1S,3′R,6′R,7′S,8′E,11′S,12′R)-6-chloro-7′-((4-((dimethylamino)methyl)-5-methyl-1,3-oxazol-2-yl)methyl)-7′-methoxy-11′,12′-dimethyl-3,4-dihydro-2H,15′H-spiro[naphthalene-1,22′-[20]oxa[13]thia[1,14]diazatetracyclo [14.7.2.0~3,6~.0~19,24~]pentacosa[8,16,18,24]tetraen]-15′-one 13′,13′-dioxide] | 0.074 nM | 453 nM | – | –
4 | CO[C@@]1(Cc2nc(CN3CCOCC3)c(C)o2)/C=C/C[C@H](C)[C@@H](C)S(=O)(=O)NC(=O)c2ccc3c(c2)N(C[C@@H]2CC[C@H]21)C[C@@]1(CCCc2cc(Cl)ccc21)CO3 [Example 100587, (1S,3′R,6′R,7′S,8′E,11′S,12′R)-6-chloro-7′-methoxy-11′,12′-dimethyl-7′-((5-methyl-4-(4-morpholinylmethyl)-1,3-oxazol-2-yl)methyl)-3,4-dihydro-2H,15′H-spiro[naphthalene-1,22′-[20]oxa[13]thia[1,14]diazatetracyclo [14.7.2.0~3,6~.0~19,24~]pentacosa[8,16,18,24]tetraen]-15′-one 13′,13′-dioxide] | 0.136 nM | 177 nM | – | –
5 | CO[C@@]1(COCCN2CCOCC2)/C=C/C[C@H](C)[C@@H](C)S(=O)(=O)NC(=O)c2ccc3c(c2)N(C[C@@H]2CC[C@H]21)C[C@@]1(CCCc2cc(Cl)ccc21)CO3 [Example 100590, (1S,3′R,6′R,7′S,8′E,11′S,12′R)-6-chloro-7′-methoxy-11′,12′-dimethyl-7′-((2-(4-morpholinyl)ethoxy)methyl)-3,4-dihydro-2H,15′H-spiro[naphthalene-1,22′-[20]oxa[13]thia[1,14]diazatetracyclo [14.7.2.0~3,6~.0~19,24~]pentacosa[8,16,18,24]tetraen]-15′-one 13′,13′-dioxide] | 0.086 nM | 501 nM | – | –
6 | CO[C@]1(CCN2CCN3CCCC[C@@H]3C2)/C=C/C[C@H](C)[C@@H](C)S(=O)(=O)NC(=O)c2ccc3c(c2)N(C[C@@H]2CC[C@H]21)C[C@@]1(CCCc2cc(Cl)ccc21)CO3 [Example 100591, (1S,3′R,6′R,7′R,8′E,11′S,12′R)-6-chloro-7′-methoxy-11′,12′-dimethyl-7′-(2-((9aR)-octahydro-2H-pyrido[1,2-a]pyrazin-2-yl)ethyl)-3,4-dihydro-2H,15′H-spiro[naphthalene-1,22′-[20]oxa[13]thia[1,14]diazatetracyclo [14.7.2.0~3,6~.0~19,24~]pentacosa[8,16,18,24]tetraen]-15′-one 13′,13′-dioxide] | 0.075 nM | 60 nM | – | –
7 | CO[C@]1(CCN2CCN3CCCC[C@@H]3C2)CCC[C@H](C)[C@@H](C)S(=O)(=O)NC(=O)c2ccc3c(c2)N(C[C@@H]2CC[C@H]21)C[C@@]1(CCCc2cc(Cl)ccc21)CO3 [Example 100592, (1S,3′R,6′R,7′S,11′S,12′R)-6-chloro-7′-methoxy-11′,12′-dimethyl-7′-(2-((9aR)-octahydro-2H-pyrido[1,2-a]pyrazin-2-yl)ethyl)-3,4-dihydro-2H,15′H-spiro[naphthalene-1,22′-[20]oxa[13]thia[1,14]diazatetracyclo [14.7.2.0~3,6~.0~19,24~]pentacosa[16,18,24]trien]-15′-one 13′,13′-dioxide] | 0.275 nM | 139 nM | – | –
8 | CO[C@]1(COCCN2CCOCC2)/C=C/C[C@H](C)[C@@H](C)S(=O)(=O)NC(=O)c2ccc3c(c2)N(C[C@@H]2CC[C@H]21)C[C@@]1(CCCc2cc(Cl)ccc21)CO3 [Example 100594, (1S,3′R,6′R,7′R,8′E,11′S,12′R)-6-chloro-7′-methoxy-11′,12′-dimethyl-7′-((2-(4-morpholinyl)ethoxy)methyl)-3,4-dihydro-2H,15′H-spiro[naphthalene-1,22′-[20]oxa[13]thia[1,14]diazatetracyclo [14.7.2.0~3,6~.0~19,24~]pentacosa[8,16,18,24]tetraen]-15′-one 13′,13′-dioxide] | 0.143 nM | 241 nM | – | –
9 | CCCO[C@]1(C=O)/C=C/C[C@H](C)[C@@H](C)S(=O)(=O)NC(=O)c2ccc3c(c2)N(C[C@@H]2CC[C@H]21)C[C@@]1(CCCc2cc(Cl)ccc21)CO3 [Example 100602, (1S,3′R,6′R,7′R,8′E,11′S,12′R)-6-chloro-11′,12′-dimethyl-15′-oxo-7′-propoxy-3,4-dihydro-2H-spiro[naphthalene-1,22′-[20]oxa[13]thia[1,14]diazatetracyclo [14.7.2.0~3,6~.0~19,24~]pentacosa[8,16,18,24]tetraene]-7′-carbaldehyde 13′,13′-dioxide] | 0.8 nM | 2330 nM | – | –
10 | CC(C)CO[C@]1(C=O)/C=C/C[C@H](C)[C@@H](C)S(=O)(=O)NC(=O)c2ccc3c(c2)N(C[C@@H]2CC[C@H]21)C[C@@]1(CCCc2cc(Cl)ccc21)CO3 [Example 100603, (1S,3′R,6′R,7′R,8′E,11′S,12′R)-6-chloro-11′,12′-dimethyl-7′-(2-methylpropoxy)-15′-oxo-3,4-dihydro-2H-spiro[naphthalene-1,22′-[20]oxa[13]thia[1,14]diazatetracyclo [14.7.2.0~3,6~.0~19,24~]pentacosa[8,16,18,24]tetraene]-7′-carbaldehyde 13′,13′-dioxide] | 0.651 nM | 1570 nM | – | –
11 | (1 S,3′R,6′R,7′R,8′E,11′S,12′R)-6-chloro-7′-methoxy-11′-methyl-12′-(2-(((2-methyl-2-propanyl)(diphenyl)silyl)oxy)ethyl)-7′-((9aR)-octahydro-2H-pyrido[1,2-a]pyrazin-2-ylmethyl)-3,4-dihydro-2H, 15′H-spiro[naphthalene-1,22′-[20]oxa[13]thia[1,14]diazatetracyclo[14.7.2.0-3,6˜.0˜19,24˜]pentacosa[8,16,18,24]tetraen]-15′-one 13′,13′-dioxide [Example 359] | – | – | 2.08 nM | > 33300 nM
12 | (1 S,3′R,6′R,7′S,8′E, 11′S,12′R)-6-chloro-11′,12′-dimethyl-7′-(2-methylpropoxy)-7′-((4-(3-oxetanyl)-1-piperazinyl)methyl)-3,4-dihydro-2H,15′H-spiro[naphthalene-1,22′-[20]oxa[13]thia[1,14]diazatetracyclo[14.7.2.0-3,6˜.0˜19,24˜]pentacosa[8,16,18,24]tetraen]-15′-one 13′,13′-dioxide [Example 348] | – | – | 2.62 nM | 5360 nM
13 | (1S,3′R,6′R,7′R,8′E,11′S,12′R)-6-chloro-12′-(2-(dimethylamino)ethyl)-7′-methoxy-11′-methyl-7′-((9aR)-octahydro-2H-pyrido[1,2-a]pyrazin-2-ylmethyl)-3,4-dihydro-2H,15′H-spiro[naphthalene-1,22′-[20]oxa[13]thia[1,14]diazatetracyclo[14.7.2.0-3,6˜.0˜19,24˜]pentacosa[8,16,18,24]tetraen]-15′-one 13′,13′-dioxide [Example 367] | – | – | 0.201 nM | 273 nM
14 | (1S,3′R,6′R,7′R,8′E, 11′S,12′R)-6-chloro-12′-(2-hydroxyethyl)-7′-methoxy-11′-methyl-7′-((9aR)-octahydro-2H-pyrido[1,2-a]pyrazin-2-ylmethyl)-3,4-dihydro-2H, 15′H-spiro[naphthalene-1,22′-[20]oxa[13]thia[1,14]diazatetracyclo[14.7.2.0-3,6˜.0˜19,24˜]pentacosa[8,16,18,24]tetraen]-15′-one 13′,13′-dioxide [Example 358] | – | – | 0.066 nM | 144 nM
15 | (1S,3′R,6′R,7′S,8′E,11′S,12′R)-6-chloro-7′-(2-methoxyethoxy)-11′,12′-dimethyl-7′-((9aR)-octahydro-2H-pyrido[1,2-a]pyrazin-2-ylmethyl)-3,4-dihydro-2H, 15′H-spiro[naphthalene-1,22′-[20]oxa[13]thia[1,14]diazatetracyclo[14.7.2.0-3,6˜.0˜19,24˜]pentacosa[8,16,18,24]tetraen]-15′-one 13′,13′-dioxide [Example 151] | – | – | 0.843 nM | 462 nM
